Legend:
[1] = system: CHEAL (Lambsquarters, Common); experiment: Postemergence herbicidal evaluation; assay type: in vivo, Chenopodium album; conditions: postemergence
Procedure, shortened: (§1)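 Herbicidal effect was judged by eye on a 0–9 scale covering stand, vigor, deformity, size and chlorosis, compared with controls, four to five weeks after seedlings about two weeks old were sprayed (40 psi, ~0.0156–0.500 kg/ha).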

CYPIR (Rice Flatsedge) = experiment: Postemergence weed control under flooded paddy conditions; assay type: in vivo, Cyperus iria; conditions: postemergence weeds, rated 3 to 4 weeks after treatment
Procedure, shortened: (§2)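 Injury ratings (0–9 scale covering stand, vigor, malformation, size, chlorosis and overall appearance versus control) were made three to four weeks after treatment. Test material, about 0.0313 to 0.500 kg/ha a.i. in 50/50 v/v aqueous/acetone, was added to flood water 1.5 to 3 cm deep over 3 to 5 cm weeds and 1.5 to 2.5 leaf rice.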

AMBEL (Ragweed, Common) = experiment: Preemergence herbicidal evaluation; assay type: in vivo, Ambrosia artemisifolia; conditions: rated 4-5 weeks after treatment
Procedure, shortened: (§3)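 Scores use a 0–9 visual scale covering stand, vigor, malformation, size and chlorosis relative to controls, rated four to five weeks after treatment. Before emergence, soil-planted seeds were sprayed with compound in aqueous acetone at roughly 0.0156–0.500 kg/ha and held in the greenhouse.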

CASOB (Sicklepod) = experiment: Postemergence herbicidal evaluation; assay type: in vivo, Cassia obtusifolia; conditions: postemergence
Procedure, shortened: as §1

[2] = system: GLXMAW (Soybean, Williams); experiment: Preemergence herbicidal evaluation; assay type: in vivo, Glycine max, (L.) Merr. cv Williams; conditions: rated 4-5 weeks after treatment
Procedure, shortened: as §3

SETVI (Foxtail, Green) = experiment: Preemergence herbicidal evaluation; assay type: in vivo, Setaria viridis; conditions: rated 4-5 weeks after treatment
Procedure, shortened: as §3

ORYSAT (Rice, Tebonnet) [3] = experiment: Postemergence herbicidal evaluation; assay type: in vivo, Oryza sativa, (L.) Tebonnet; conditions: postemergence
Procedure, shortened: as §1

CYPSE (Flatsedge) [4] = experiment: Postemergence weed control under flooded paddy conditions; assay type: in vivo, Cyperus serotinus; conditions: postemergence weeds, rated 3 to 4 weeks after treatment
Procedure, shortened: as §2

ZEAMX (Corn, Field) = experiment: Postemergence herbicidal evaluation; assay type: in vivo, Zea mays; conditions: postemergence
Procedure, shortened: as §1

GALAP (Galium) = experiment: Postemergence herbicidal evaluation; assay type: in vivo, Galium aparine; conditions: postemergence
Procedure, shortened: as §1

ORYSAT (Rice, Tebonnet) [5] = experiment: Preemergence herbicidal evaluation; assay type: in vivo, Oryza sativa, (L.) Tebonnet; conditions: rated 4-5 weeks after treatment
Procedure, shortened: as §3

CYPSE (Flatsedge) [6] = experiment: Preemergence weed control under flooded paddy conditions; assay type: in vivo, Cyperus serotinus; conditions: rated 3-4 weeks after treatment
Procedure, shortened: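 Silt loam, seeds in top 0.5 cm; flood held 1.5-3 cm; test cpd as acetone/water 50/50 into flood water, ~0.0313-0.500 kg/ha a.i.; greenhouse 3-4 wk; visual 0-9 score vs control.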

[7] = system: SAGPY (Arrowhead (Pygmaea)); experiment: Postemergence weed control under flooded paddy conditions; assay type: in vivo, Sagittaria pygmaea; conditions: postemergence weeds, rated 3 to 4 weeks after treatment
Procedure, shortened: as §2

CCOC(=O)C(c1ccc(Cl)cc1)N1C(=O)CSC1=Nc1cc(-n2c(=O)cc(C(F)(F)F)n(C)c2=O)c(F)cc1Cl (racemic) [Compound 79, Ethyl α-(p-chlorophenyl)-2-{{2-chloro-5-[3,6-dihydro-3-methyl-2,6-dioxo-4-(trifluoromethyl)-1(2H)-pyrimidinyl]-4-fluorophenyl}imino}-4-oxo-3-thiazolidineacetate, DL-]
8.0: Preemergence herbicidal rating AMBEL (AMBEL (Ragweed, Common); rate 0.2500 kg/ha)
1.0: CHEAL herbicidal rating ([1]; rate 0.0158 kg/ha) | Preemergence herbicidal rating AMBEL (AMBEL (Ragweed, Common); rate 0.0313 kg/ha) | Preemergence herbicidal rating AMBEL (AMBEL (Ragweed, Common); rate 0.1250 kg/ha) | CASOB herbicidal rating (CASOB (Sicklepod); rate 0.0158 kg/ha) | CASOB herbicidal rating (CASOB (Sicklepod); rate 0.0315 kg/ha) | CASOB herbicidal rating (CASOB (Sicklepod); rate 0.0630 kg/ha) | Preemergence herbicidal rating GLXMAW ([2]; rate 0.0313 kg/ha) | Preemergence herbicidal rating GLXMAW ([2]; rate 0.0625 kg/ha) | Preemergence herbicidal rating SETVI (SETVI (Foxtail, Green); rate 0.0313 kg/ha) | Preemergence herbicidal rating SETVI (SETVI (Foxtail, Green); rate 0.0625 kg/ha) | Preemergence herbicidal rating SETVI (SETVI (Foxtail, Green); rate 0.1250 kg/ha) | GALAP herbicidal rating (GALAP (Galium); rate 0.0158 kg/ha) | GALAP herbicidal rating (GALAP (Galium); rate 0.0630 kg/ha) | Preemergence herbicidal rating ORYSAT (ORYSAT (Rice, Tebonnet) [5]; rate 0.0625 kg/ha) | Preemergence herbicidal rating ORYSAT (ORYSAT (Rice, Tebonnet) [5]; rate 0.2500 kg/ha)
9.0: Herbicidal rating CYPSE (CYPSE (Flatsedge) [4]; Rate 0.2500 kg/ha) | CYPSE herbicidal effect rating (CYPSE (Flatsedge) [6]; 0.2500 kg/ha)
3.0: Preemergence herbicidal rating AMBEL (AMBEL (Ragweed, Common); rate 0.0625 kg/ha)
0.0: Herbicidal rating CYPIR (CYPIR (Rice Flatsedge); Rate 0.0313 kg/ha) | Herbicidal rating CYPIR (CYPIR (Rice Flatsedge); Rate 0.0625 kg/ha) | Preemergence herbicidal rating GLXMAW ([2]; rate 0.1250 kg/ha) | Herbicidal rating CYPSE (CYPSE (Flatsedge) [4]; Rate 0.0313 kg/ha) | Herbicidal rating CYPSE (CYPSE (Flatsedge) [4]; Rate 0.0625 kg/ha) | Herbicidal rating CYPSE (CYPSE (Flatsedge) [4]; Rate 0.1250 kg/ha) | Preemergence herbicidal rating ORYSAT (ORYSAT (Rice, Tebonnet) [5]; rate 0.0313 kg/ha) | Preemergence herbicidal rating ORYSAT (ORYSAT (Rice, Tebonnet) [5]; rate 0.1250 kg/ha) | CYPSE herbicidal effect rating (CYPSE (Flatsedge) [6]; 0.0313 kg/ha) | CYPSE herbicidal effect rating (CYPSE (Flatsedge) [6]; 0.0625 kg/ha) | CYPSE herbicidal effect rating (CYPSE (Flatsedge) [6]; 0.1250 kg/ha) | Herbicidal rating SAGPY ([7]; Rate 0.0313 kg/ha) | Herbicidal rating SAGPY ([7]; Rate 0.0625 kg/ha)
4.0: Preemergence herbicidal rating SETVI (SETVI (Foxtail, Green); rate 0.2500 kg/ha) | ORYSAT herbicidal rating (ORYSAT (Rice, Tebonnet) [3]; rate 0.0630 kg/ha) | Herbicidal rating SAGPY ([7]; Rate 0.1250 kg/ha) | Herbicidal rating SAGPY ([7]; Rate 0.2500 kg/ha)
2.5: ORYSAT herbicidal rating (ORYSAT (Rice, Tebonnet) [3]; rate 0.0158 kg/ha) | ORYSAT herbicidal rating (ORYSAT (Rice, Tebonnet) [3]; rate 0.0315 kg/ha)
7.0: CHEAL herbicidal rating ([1]; rate 0.0315 kg/ha) | CHEAL herbicidal rating ([1]; rate 0.0630 kg/ha)
6.0: Herbicidal rating CYPIR (CYPIR (Rice Flatsedge); Rate 0.2500 kg/ha)
4.5: ZEAMX herbicidal rating (ZEAMX (Corn, Field); rate 0.0315 kg/ha)
2.0: Herbicidal rating CYPIR (CYPIR (Rice Flatsedge); Rate 0.1250 kg/ha) | Preemergence herbicidal rating GLXMAW ([2]; rate 0.2500 kg/ha) | GALAP herbicidal rating (GALAP (Galium); rate 0.0315 kg/ha)
5.0: ZEAMX herbicidal rating (ZEAMX (Corn, Field); rate 0.0158 kg/ha) | ZEAMX herbicidal rating (ZEAMX (Corn, Field); rate 0.0630 kg/ha)
